Test results taken from patent US20090163548A1, “Method of using and comopositions comprising immunomodulatory compounds for the treatment and management of myeloproliferative diseases” (priority 2004, published 2009).

What was measured:
various cytokines = assay: In vitro studies of effects on the production of various cytokines, comparison with thalidomide; format: cell-based; settings: in all in vitro cytokine production studies
From the text: The pharmacological properties of 3-(4-amino-1-oxo-1,3-dihydro-isoindol-2-yl)-piperidine-2,6-dione, including activity comparisons with thalidomide, have been characterized in in vitro studies. Studies examined the effects of 3-(4-amino-1-oxo-1,3-dihydro-isoindol-2-yl)-piperidine-2,6-dione or thalidomide on the production of various cytokines. […] In addition, a safety pharmacology study of 3-(4-amino-1-oxo-1,3-dihydro-isoindol-2-yl)-piperidine-2,6-dione has been conducted in dogs and the effects of 3-(4-amino-1-oxo-1,3-dihydro-isoindol-2-yl)-piperidine-2,6-dione on ECG parameters were examined further as part of three repeat-dose toxicity studies in primates.

TNF-α [1] = assay: Inhibition of TNF-α production following LPS-stimulation of human whole blood; format: cell-based; settings: LPS-stimulated, read-out: IC50 for inhibiting production of TNF-α following LPS-stimulation of human whole blood
From the text: (§1) Inhibition of TNF-α production following LPS-stimulation of human PBMC and human whole blood by 3-(4-amino-1-oxo-1,3-dihydro-isoindol-2-yl)-piperidine-2,6-dione or thalidomide was investigated in vitro (Muller et al., Bioorg. Med. Chem. Lett. 9:1625-1630, 1999).

TNF-α [2] = assay: Inhibition of TNF-α production following LPS-stimulation of human PBMC; format: cell-based; settings: LPS-stimulated, read-out: IC50 for inhibiting production of TNF-α following LPS-stimulation of PBMC
From the text: as §1

[3] = dog, in vivo
Procedure: The effects of 3-(4-amino-1-oxo-1,3-dihydro-isoindol-2-yl)-piperidine-2,6-dione on cardiovascular and respiratory function were investigated in anesthetized dogs. Two groups of Beagle dogs (2/sex/group) were used. One group received three doses of vehicle only and the other received three ascending doses of 3-(4-amino-1-oxo-1,3-dihydro-isoindol-2-yl)-piperidine-2,6-dione (2, 10, and 20 mg/kg). In all cases, doses of 3-(4-amino-1-oxo-1,3-dihydro-isoindol-2-yl)-piperidine-2,6-dione or vehicle were successively administered via infusion through the jugular vein separated by intervals of at least 30 minutes.
The only statistically significant difference between the vehicle and treatment groups was a small increase in arterial blood pressure (from 94 mmHg to 101 mmHg) following administration of the low dose of 3-(4-amino-1-oxo-1,3-dihydro-isoindol-2-yl)-piperidine-2,6-dione.

Nc1cccc2c1CN(C1CCC(=O)NC1=O)C2=O (stereo not shown) [3-(4-amino-1-oxo-1,3-dihydro-isoindol-2-yl)-piperidine-2,6-dione]
Potency relative to thalidomide (various cytokines): at least 50 times
IC50 (TNF-α [1]): ~480 nM
IC50 (TNF-α [2]): ~100 nM
Arterial blood pressure after administration ([3]; both, Beagle, 2 mg/kg): 101 mmHg
Duration of the increase in arterial blood pressure ([3]; both, Beagle, 2 mg/kg): approximately 15 minutes
Deviations in femoral blood flow, respiratory parameters, and Qtc interval [3]: not considered treatment-related
Increase in arterial blood pressure at higher doses [3]: not seen at higher doses
